Holding throughout (test): caspase 3/7 activation in multiple cell lines – Caspase-Glo 3/7 luminescence, multiple timepoints, mechanism study for HRAS target identification project, profiling panel (AID 652143)
One assay has as its system SNB-19. The conditions noted are these: Cell line panel, caspase 3/7 luminescence, 1/6/24 h.
The subject of a further assay is LOX-IMVI. To be noted: Cell line panel, caspase 3/7 luminescence, 1/6/24 h, caspase 3/7 AC40, timepoint 3.
The next assay has as its system U-251. To be noted: Cell line panel, caspase 3/7 luminescence, 1/6/24 h.
Another assay has as its system SR. The conditions noted are these: Cell line panel, caspase 3/7 luminescence, 1/6/24 h.
A further assay has as its system HT-29. To be noted: Cell line panel, caspase 3/7 luminescence, 1/6/24 h, caspase 3/7 AC40, timepoint 2.

This note sets out measurements from PubChem BioAssay AID652143 (Broad Institute, 2013).

Structures are written as SMILES. Results filed as inconclusive are left out. Active and inactive are the calls of the source. No rule for the calls is given here. A value given as a limit tells only on which side of the number the result lay.

As for `CCC(=O)N(c1ccc(OC)c(Cl)c1)C(C(=O)NCCc1ccccc1)c1cccs1` (stereo not given), the result in the assay on SNB-19 and in the assay on U-251 was inactive. The compound further displayed an AC40 in the assay with LOX-IMVI above 35 µM.

For `Cc1onc(C(=O)N2CCN(C(c3ccc(Cl)cc3)c3ccc(OCCOCCOCCNC(=O)OC(C)(C)C)cc3)CC2)c1[N+](=O)[O-]` (stereo not given), the result in the assay on SNB-19 was inactive.

In the case of `CO[C@H]1C[C@@H]2CC[C@@H](C)[C@@](O)(O2)C(=O)C(=O)N2CCCC[C@H]2C(=O)O[C@H]([C@H](C)C[C@@H]2CC[C@@H](O)[C@H](OC)C2)CC(=O)[C@H](C)/C=C(\C)[C@@H](O)[C@@H](OC)C(=O)[C@H](C)C[C@H](C)/C=C/C=C/C=C/1C`, the outcome in the assay with SNB-19 was inactive. In the assay on SNB-19 (caspase 3/7 AC40, timepoint 2), this compound gave an AC40 of 35 µM.

As to `COc1ccc(N(C(=O)CCl)C(C(=O)NCCc2ccccc2)c2cccs2)cc1Cl` (stereo not given), the AC40 in the assay on SR was 22.2 µM; in the assay on SR (caspase 3/7 AC40, timepoint 2), 0.177 µM; in the assay on SR (caspase 3/7 AC40, timepoint 3), 0.551 µM; with U-251 it was 14.7 µM; in the assay with U-251 (caspase 3/7 AC40, timepoint 2), 1.45 µM; with U-251 (caspase 3/7 AC40, timepoint 3) it was 0.948 µM.

Regarding `Cc1onc(C(=O)N2CCN(C(c3ccc(Cl)cc3)c3ccc(Cl)cc3)CC2)c1[N+](=O)[O-]`, the outcome with SNB-19 was inactive.

Take `CC(C)(C)OC(=O)NCCOCCOCCOc1ccc(N(C(=O)CCl)C(C(=O)NCCc2ccccc2)c2cccs2)cc1Cl` (stereo not given): the AC40 with SNB-19 is > 35 µM (inactive).

In turn, `O=C(NCCOCCOCCOc1ccc(N(C(=O)CCl)C(C(=O)NCCc2ccccc2)c2cccs2)cc1Cl)c1ccc(COC2C#CCCCCC2)cc1` (stereo not given) returned an AC40 with HT-29 above 35 µM.
